The values that follow come from ChEMBL document CHEMBL1159165, “Novel, selective mechanism-based inhibitors of the herpes proteases” (Bioorg Med Chem Lett, 1996).

The nature of assay [1]: Compound was evaluated for inhibitory activity against herpes simplex type 2 protease (HSV-2 pr) at dose of 10 uM. The note with it: Human alphaherpesvirus 2.
The test system of assay [2] is Human betaherpesvirus 5. As to the kind of experiment: Compound was evaluated for inhibitory activity against human cytomegalovirus (HCMV) protease. The class given is functional.
The target of assay [3] is Serine protease 1 (Homo sapiens) (UniProt P07477). As to the kind of experiment: Compound was evaluated for inhibitory activity against trypsin at dose of 100 uM.
Assay [4] in a line: Compound was evaluated for inhibitory activity against elastase at dose of 100 uM.
The nature of assay [5]: Compound was evaluated for inhibitory activity against Chymotrypsinogen at dose of 22 uM.
Assay [6] has as its system Human betaherpesvirus 5. As to the kind of experiment: Compound was evaluated for inhibitory activity against human cytomegalovirus (HCMV) protease 10 uM. The assay is classed as functional.
Assay [7] has as its system Human betaherpesvirus 5. As to the kind of experiment: Compound was evaluated for inhibitory activity against human cytomegalovirus (HCMV) protease at dose of 10 uM. The assay is classed as functional.
A short description of assay [8]: Compound was evaluated for inhibitory activity against Chymotrypsinogen at dose of 100 uM.

pIC50: −log10 of the molar value.

Serine protease 1 (Homo sapiens), sequence (P07477 whole entry): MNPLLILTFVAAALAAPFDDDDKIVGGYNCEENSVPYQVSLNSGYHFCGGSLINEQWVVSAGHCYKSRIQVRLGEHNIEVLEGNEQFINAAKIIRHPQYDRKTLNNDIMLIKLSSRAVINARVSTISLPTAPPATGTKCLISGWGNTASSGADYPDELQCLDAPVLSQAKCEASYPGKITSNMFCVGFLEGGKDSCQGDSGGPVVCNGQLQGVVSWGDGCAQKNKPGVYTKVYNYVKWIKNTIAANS

In turn, `COc1ccc(S(=O)(=O)ON2C(=O)/C(=C/c3ccccc3)N=C2c2ccccc2)cc1` had an inhibition in assay [1] of 20%. Further, the pIC50 in the assay with Human betaherpesvirus 5 [2] was 5.64.
With `CC(=O)n1cc([C@H]2C[C@@]23N=C(c2ccccc2)OC3=O)c2ccccc21`, in the assay with Human betaherpesvirus 5 [2], the negative logarithm of the IC50 (pIC50) was 6.80.
In the case of `O=C1OC(c2ccccc2)=N[C@@]12C[C@@H]2c1ccccc1`, the inhibition in assay [3] was found to be 63%; in assay [4], 42%; in assay [5] it was 92%. The pIC50 in the assay on Human betaherpesvirus 5 [2] was 5.74.
The compound `CC(=O)Oc1ccc([C@H]2C[C@@]23N=C(c2ccccc2)OC3=O)cc1` gave a pIC50 in the assay with Human betaherpesvirus 5 [2] of 5.96.
The compound `O=C1OC(c2ccccc2)=NC12CC2` gave an inhibition in assay [1] of 71%. In the assay on Human betaherpesvirus 5 [6], this compound returned an Inhibition of 16%.
`CCOP(=O)(OCC)ON1C(=O)/C(=C/c2ccccc2)N=C1c1ccccc1`: in assay [1], the inhibition stood at 5%. For the same compound, the inhibition at 10 µM with Human betaherpesvirus 5 [7] came out at 20%.
Regarding `CS(=O)(=O)ON1C(=O)/C(=C/c2ccccc2)N=C1c1ccccc1`, the inhibition in assay [4] stood at 33%. In the assay with Human betaherpesvirus 5 [2], this compound showed a pIC50 of 6.40.
With `COc1ccc([C@H]2C[C@@]23N=C(c2ccccc2)OC3=O)cc1`, the inhibition in assay [3] is 64%; in assay [4] it was 35%; in assay [8], 92%. The compound also showed a pIC50 in the assay on Human betaherpesvirus 5 [2] of 6.70.
`O=C1OC(c2ccccc2)=N[C@@]12C[C@H]2c1ccccc1` showed an inhibition in assay [1] of 24%. Moreover, at 10 µM the inhibition with Human betaherpesvirus 5 [7] was 85%.
Turning to `CC1=N[C@@]2(C[C@@H]2c2ccccc2)C(=O)O1`, the inhibition in assay [3] is 88%; in assay [4], 82%.
The compound `CC(=O)ON1C(=O)/C(=C/c2ccccc2)N=C1c1ccccc1` gave an inhibition in assay [1] of 14%. For the same compound, the inhibition at 10 µM with Human betaherpesvirus 5 [7] was 35%.

For orientation: inhibition means the drop in the measured response relative to a control, in per cent. Lower therefore signals little suppression. As usually defined, the pIC50 is the negative decadic logarithm of the IC50, by convention in mol/L. The term Inhibition denotes the relative decrease from the control value, in per cent. Lower therefore signals a response near the control.
